One assay concerns the target T1, TR-α (Homo sapiens, UniProt P10827).
T1 sequence (P10827 1-410 isoform P10827-2): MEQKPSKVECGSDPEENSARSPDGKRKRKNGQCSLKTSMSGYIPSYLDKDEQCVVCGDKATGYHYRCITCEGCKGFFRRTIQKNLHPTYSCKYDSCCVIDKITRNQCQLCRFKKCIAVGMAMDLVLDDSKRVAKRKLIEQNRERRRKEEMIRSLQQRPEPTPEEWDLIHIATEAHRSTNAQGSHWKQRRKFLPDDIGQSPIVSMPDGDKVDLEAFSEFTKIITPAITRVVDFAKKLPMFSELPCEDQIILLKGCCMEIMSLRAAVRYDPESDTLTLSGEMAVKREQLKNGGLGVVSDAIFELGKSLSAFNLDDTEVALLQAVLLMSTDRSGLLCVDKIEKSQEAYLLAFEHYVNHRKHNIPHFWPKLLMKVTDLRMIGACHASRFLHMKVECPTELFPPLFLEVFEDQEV
The assay is described as follows: In vitro TR-α activity (in-house protocol). The format is cell-based. The conditions noted are these: for fold induction at 0.001 µM: Conc. 1 nM; for fold induction at 0.001 µM / fold induction at 0.01 µM / fold induction at 0.1 µM / fold induction at 1 µM: read-out: TR-α Fold Induction w.r.t T3(100 nm); for fold induction at 0.01 µM: Conc. 10 nM; for fold induction at 0.1 µM: Conc. 100 nM; for fold induction at 1 µM: Conc. 1000 nM. The method, then:
(§1) In vitro TR-α & TR-β activities were determined as per in-house protocols and the results of representative compounds are provided in tables 1 & 2 below as a proof of the efficacies of the novel class of compounds disclosed above.

The target of a further assay is T2, TR-β (Homo sapiens, UniProt P10828).
T2 sequence (P10828 1-461): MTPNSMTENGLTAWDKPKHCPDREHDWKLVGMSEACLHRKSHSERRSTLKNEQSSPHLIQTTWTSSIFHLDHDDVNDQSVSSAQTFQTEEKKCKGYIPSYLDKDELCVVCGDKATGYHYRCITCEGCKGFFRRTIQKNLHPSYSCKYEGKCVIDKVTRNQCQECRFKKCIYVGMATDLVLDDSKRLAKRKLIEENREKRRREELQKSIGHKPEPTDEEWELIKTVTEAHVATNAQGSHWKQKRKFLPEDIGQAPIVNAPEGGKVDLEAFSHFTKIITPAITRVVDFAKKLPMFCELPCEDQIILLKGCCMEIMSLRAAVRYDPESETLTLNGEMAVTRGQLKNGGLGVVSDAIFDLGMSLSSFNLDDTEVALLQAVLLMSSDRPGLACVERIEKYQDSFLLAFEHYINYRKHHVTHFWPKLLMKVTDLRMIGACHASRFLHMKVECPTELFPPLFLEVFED
The assay is described as follows: In vitro TR-β activity (in-house protocol). It is filed as cell-based. As to conditions: for fold induction at 0.001 µM: Conc. 1 nM; for fold induction at 0.001 µM / fold induction at 0.01 µM / fold induction at 0.1 µM / fold induction at 1 µM: read-out: TR-β Fold Induction w.r.t T3(100 nm); for fold induction at 0.01 µM: Conc. 10 nM; for fold induction at 0.1 µM: Conc. 100 nM; for fold induction at 1 µM: Conc. 1000 nM. The method, then:
as §1

Take `CC(ON=Cc1cc(Cl)c(Oc2ccc(O)c(C(C)C)c2)c(Cl)c1)C(=O)O` (stereo not shown) [Example 8, 2-(((3,5-dichloro-4-(4-hydroxy-3-isopropylphenoxy)benzylidene)amino)oxy)propanoic acid]: on TR-α, the fold induction at 0.001 µM amounted to 12.4, the fold induction at 0.01 µM is 29.5, the fold induction at 0.1 µM came out at 75 and the fold induction at 1 µM stood at 76.6. For the same compound, on TR-β, the fold induction at 0.001 µM was 16.3, the fold induction at 0.01 µM turned out to be 45.4, the fold induction at 0.1 µM was 85.2 and the fold induction at 1 µM came out at 89.

With `O=C(O)CON=Cc1cc(Br)c(Oc2ccc(O)c(S(=O)(=O)N3CCCC3)c2)c(Br)c1` [Example 41, 2-(((3,5-dibromo-4-(4-hydroxy-3-(pyrrolidin-1-ylsulfonyl)phenoxy)benzylidene)amino)oxy)acetic acid], at TR-α, the fold induction at 0.001 µM stood at 12.6, the fold induction at 0.01 µM came to 12.8, the fold induction at 0.1 µM was 17.7 and the fold induction at 1 µM turned out to be 46.1. For the same compound, at TR-β, the fold induction at 0.001 µM worked out at 6.51, the fold induction at 0.01 µM came out at 6.74, the fold induction at 0.1 µM came out at 14 and the fold induction at 1 µM was 58.1.

In the case of `CC(C)c1cc(Oc2c(Cl)cc(C=NOCC(=O)O)cc2Cl)ccc1O` [Example 1, 2-(((3,5-dichloro-4-(4-hydroxy-3-isopropylphenoxy)benzylidene)amino)oxy)acetic acid], at TR-α, the fold induction at 0.001 µM turned out to be 11.8, the fold induction at 0.01 µM turned out to be 25.7, the fold induction at 0.1 µM came to 73.5 and the fold induction at 1 µM came to 99. In addition, on TR-β, the fold induction at 0.001 µM is 7.72, the fold induction at 0.01 µM came to 20.6, the fold induction at 0.1 µM was determined as 52.6 and the fold induction at 1 µM was 53.4.

Regarding `O=C(O)CON=Cc1cc(Cl)c(Oc2ccc(O)c(Cc3ccccc3)c2)c(Cl)c1` [Example 5, 2-(((4-(3-benzyl-4-hydroxyphenoxy)-3,5-dichlorobenzylidene)amino)oxy)acetic acid], on TR-α, the fold induction at 0.001 µM was determined as 14.2, the fold induction at 0.01 µM is 10.8, the fold induction at 0.1 µM was found to be 28.3 and the fold induction at 1 µM is 57. For the same compound, on TR-β, the fold induction at 0.001 µM came to 14.8, the fold induction at 0.01 µM is 12, the fold induction at 0.1 µM amounted to 43.6 and the fold induction at 1 µM is 80.5.

As for `CCc1cc(Oc2c(Br)cc(C=NOC(C)C(=O)O)cc2Br)ccc1O` (stereo not shown) [Example 25, 2-(((3,5-dibromo-4-(3-ethyl-4-hydroxyphenoxy)benzylidene)amino)oxy)propanoic acid], at TR-α, the fold induction at 0.001 µM worked out at 13.8, the fold induction at 0.01 µM was 28.5, the fold induction at 0.1 µM is 79 and the fold induction at 1 µM came out at 134. For the same compound, at TR-β, the fold induction at 0.001 µM was 11.5, the fold induction at 0.01 µM was found to be 37.1, the fold induction at 0.1 µM was 59.9 and the fold induction at 1 µM came out at 86.7.

Take `O=C(O)CON=Cc1cc(Br)c(Oc2ccc(O)c(C(=O)c3cccc(Cl)c3)c2)c(Br)c1` [Example 33, 2-(((3,5-dibromo-4-(3-(3-chlorobenzoyl)-4-hydroxyphenoxy)benzylidene)amino)oxy)acetic acid]: at TR-α, the fold induction at 0.001 µM was 18.7, the fold induction at 0.01 µM came out at 32.2, the fold induction at 0.1 µM was 52.1 and the fold induction at 1 µM came to 74. On TR-β, the fold induction at 0.001 µM was determined as 14, the fold induction at 0.01 µM was 30.1, the fold induction at 0.1 µM was 72.5 and the fold induction at 1 µM stood at 62.1.

Take `CCC(ON=Cc1cc(Br)c(Oc2ccc(O)c(-c3ccccc3)c2)c(Br)c1)C(=O)O` (stereo not shown) [Example 21, 2-(((3,5-dibromo-4-((6-hydroxy-[1,1′-biphenyl]-3-yl)oxy)benzylidene)amino)oxy)butanoic acid]: at TR-α, the fold induction at 0.001 µM stood at 12.8, the fold induction at 0.01 µM was determined as 16.6, the fold induction at 0.1 µM is 50.4 and the fold induction at 1 µM is 105. At TR-β, the fold induction at 0.001 µM was 12.9, the fold induction at 0.01 µM came out at 18.2, the fold induction at 0.1 µM is 51.6 and the fold induction at 1 µM was 63.8.

In the case of `CCC(C)c1cc(Oc2c(Cl)cc(C=NOCC(=O)O)cc2Cl)ccc1O` (stereo not shown) [Example 2, 2-(((4-(3-(sec-butyl)-4-hydroxyphenoxy)-3,5-dichlorobenzylidene)amino)oxy)acetic acid], at TR-α, the fold induction at 0.001 µM was 10.2, the fold induction at 0.01 µM amounted to 26.7, the fold induction at 0.1 µM came to 66.7 and the fold induction at 1 µM was 108. Besides, on TR-β, the fold induction at 0.001 µM is 14, the fold induction at 0.01 µM amounted to 34.5, the fold induction at 0.1 µM was determined as 79.4 and the fold induction at 1 µM was 115.

Consider `CCC(C)c1cc(Oc2c(Br)cc(C=NOCC(=O)O)cc2Br)ccc1O` (stereo not shown) [Example 6, 2-(((3,5-dibromo-4-(3-(sec-butyl)-4-hydroxyphenoxy)benzylidene)amino)oxy)acetic acid], for which, at TR-α, the fold induction at 0.001 µM amounted to 11.6, the fold induction at 0.01 µM was 39.8, the fold induction at 0.1 µM is 60.6 and the fold induction at 1 µM was 64.9. In addition, at TR-β, the fold induction at 0.001 µM came to 15.9, the fold induction at 0.01 µM amounted to 37.1, the fold induction at 0.1 µM worked out at 84 and the fold induction at 1 µM worked out at 74.6.

On to `O=C(O)CON=Cc1cc(Cl)c(Oc2ccc(O)c(-c3ccccc3)c2)c(Cl)c1` [Example 4, 2-(((3,5-dichloro-4-((6-hydroxy-[1,1′-biphenyl]-3-yl)oxy)benzylidene)amino)oxy)acetic acid], for which, at TR-α, the fold induction at 0.001 µM stood at 11, the fold induction at 0.01 µM was found to be 9.45, the fold induction at 0.1 µM stood at 14 and the fold induction at 1 µM is 35.5. Besides, at TR-β, the fold induction at 0.001 µM is 11.4, the fold induction at 0.01 µM worked out at 10.5, the fold induction at 0.1 µM was found to be 19.3 and the fold induction at 1 µM worked out at 64.4.

For the compound `CC(ON=Cc1cc(Br)c(Oc2ccc(O)c(C(O)c3ccc(Cl)cc3)c2)c(Br)c1)C(=O)O` (stereo not shown) [Example 27, 2-(((3,5-dibromo-4-(3-((4-chlorophenyl)(hydroxy)methyl)-4-hydroxyphenoxy)benzylidene)amino)oxy)propanoic acid], at TR-α, the fold induction at 0.001 µM was 13.2, the fold induction at 0.01 µM came to 14.4, the fold induction at 0.1 µM was 45.2 and the fold induction at 1 µM stood at 76.4. On TR-β, the fold induction at 0.001 µM is 10.1, the fold induction at 0.01 µM is 16.4, the fold induction at 0.1 µM came out at 29.1 and the fold induction at 1 µM was found to be 107.

By EC50 is commonly meant the concentration that produces a half-maximal response. A lower EC50 goes with greater potency. For `O=C(O)CON=Cc1cc(Br)c(Oc2ccc(O)c(-c3ccccc3)c2)c(Br)c1` [Example 7, 2-(((3,5-dibromo-4-((6-hydroxy-[1,1′-biphenyl]-3-yl)oxy)benzylidene)amino)oxy)acetic acid], the EC50 is 5.2 nM at TR-α and 2.9 nM at TR-β.

As to `O=C(O)CON=Cc1cc(Br)c(Oc2ccc(O)c(C(=O)c3ccc(Br)cc3)c2)c(Br)c1` [Example 31, 2-(((3,5-dibromo-4-(3-(4-bromobenzoyl)-4-hydroxyphenoxy)benzylidene)amino)oxy)acetic acid], at TR-α, the fold induction at 0.001 µM amounted to 13.7, the fold induction at 0.01 µM was found to be 17.2, the fold induction at 0.1 µM turned out to be 38.3 and the fold induction at 1 µM was determined as 39.2. For the same compound, on TR-β, the fold induction at 0.001 µM amounted to 11.8, the fold induction at 0.01 µM was 14.3, the fold induction at 0.1 µM worked out at 41.5 and the fold induction at 1 µM worked out at 50.3.

Turning to `CC(ON=Cc1cc(Br)c(Oc2ccc(O)c(S(=O)(=O)N3CCCC3)c2)c(Br)c1)C(=O)O` (stereo not shown) [Example 42, 2-(((3,5-dibromo-4-(4-hydroxy-3-(pyrrolidin-1-ylsulfonyl)phenoxy)benzylidene)amino)oxy)propanoic acid], on TR-α, the fold induction at 0.001 µM stood at 17.7, the fold induction at 0.01 µM came to 9.9, the fold induction at 0.1 µM is 20.4 and the fold induction at 1 µM stood at 91.4. In addition, on TR-β, the fold induction at 0.001 µM was 7.3, the fold induction at 0.01 µM was 4.48, the fold induction at 0.1 µM came to 15 and the fold induction at 1 µM was determined as 60.8.

For the origin of these results see patent US20110301200A1, “THYROID RECEPTOR LIGANDS” (CADILA HEALTHCARE LIMITED, priority 2008, published 2011).
